# Measurements: patent US20240132518A1, “CEPHALOSPORIN ANTIBACTERIAL COMPOUND AND PREPARATION METHOD THEREFOR” (priority 2021, published 2024)
# Where two headings read alike, the source gives them in different places.
# Tests used:
# [1] = system: Control strain (Pseudomonas aeruginosa) ATCC 27853; experiment: Antibacterial MIC assay (ID-CAMHB), control strain Pseudomonas aeruginosa; assay type: cell-based
# Protocol: (§1) 1. The test compounds were dissolved in sterile normal saline, vortexed for uniformly mixing, and diluted in a 2-fold dilution with the sterile normal saline (11 concentration points in total). The test concentration range was 32-0.031 μg/mL, and two duplicate wells were set for each concentration. Additional wells without drug dosing were set as growth controls.
# (§2) 2. 4 μL of the diluent was added to 196 μL of the bacterial suspension in a 96-well plate (the bacterial count in the bacterial suspension was 2-8×10^5 colony forming units/mL).
# (§3) The minimum inhibitory concentration (MIC) assay was performed with reference to the Clinical and Laboratory Standards Institute (CLSI) guidelines.
# [2] = system: Control strain (Escherichia coli) ATCC 25922; experiment: Antibacterial MIC assay (ID-CAMHB), control strain Escherichia coli; assay type: cell-based
# Protocol: as §1, §2, §3
# [3] = system: Carbapenem-resistant Pseudomonas aeruginosa (CRPA); experiment: Antibacterial MIC assay (ID-CAMHB), carbapenem-resistant Pseudomonas aeruginosa; assay type: cell-based
# Protocol: as §1, §2, §3
# [4] = system: Carbapenem-resistant Acinetobacter baumannii (CRAB); experiment: Antibacterial MIC assay (ID-CAMHB), carbapenem-resistant Acinetobacter baumannii; assay type: cell-based
# Protocol: as §1, §2, §3
# [5] = system: Carbapenem-resistant Enterobacteriaceae (CRE, Klebsiella pneumoniae); experiment: Antibacterial MIC assay (ID-CAMHB), carbapenem-resistant Enterobacteriaceae; assay type: cell-based
# Protocol: as §1, §2, §3
# [6] = Pharmacokinetic study in ICR mice; assay type: in vivo; conditions: plasma; for AUC(0-inf) / AUC(0-t) / Cmax / Tmax / half-life: both sexes, mouse, sc
# Protocol: The formulation for administration was prepared on ice. A proper amount of the test compound was precisely weighed out, and a 90% volume of normal saline was slowly added. The mixture was ultrasonically stirred in an ice-water bath until no large pieces existed. After the mixture was well mixed, a 1 M NaOH solution was added in small portions using a pipette.
# • Species and strain: ICR mice • Animal grade: SPF • Animal source: Medicilon: 999M-018
# Administration by subcutaneous injection: 3 mice/sex/time point; blood samples were collected at 9 time points: 0.083 h, 0.25 h, 0.5 h, 1 h, 2 h, 4 h, 6 h, 8 h and 24 h after administration. The collected blood samples were placed in EDTA-K2 anticoagulation blood collection tubes. The collected whole blood was placed on ice and centrifuged at 6800 g at 2-8° C. for 6 min to separate plasma within 1 h. After the centrifugation, the plasma was transferred to a centrifuge tube to which a plasma stabilizer had been added in advance (plasma:concentrated phosphoric acid=100:0.2; for example, 1 μL of 10% concentrated phosphoric acid was added to 50 μL of plasma). All the animals were subjected to careful clinical observation before administration and at each of the blood collection time points after administration, and the adverse reaction symptoms in the animals were recorded.
# [7] = Pharmacokinetic study in cynomolgus monkeys; assay type: in vivo; conditions: cynomolgus monkey, plasma, 10 mg/kg single intravenous infusion, individual animals
# Protocol: An appropriate amount of a test compound was weighed precisely and added to a container, and 0.9% sodium chloride injection and 0.2 M NaOH solution were added thereto in an ice bath until the test compound was completely dissolved, so that a sample solution at a concentration of 2 mg/mL was obtained followed by storage at 2-8° C. for later use.
# • Species and strain: cynomolgus monkey • Animal grade: general grade • Animal source: Guangxi Xiongsen Primate Experimental Animal Breeding Development Co., Ltd. • Number of the using of laboratory animal: SYXK (Su) 2019-0012
# 6 cynomolgus monkeys (half male and half female) were selected and randomly divided into 3 groups with 1 animal/sex in each group. The cynomolgus monkeys were administered with the test sample at a dose of 10 mg/kg by the single intravenous infusion. Blood samples were collected from each group of animals at the following time points: before administration, and 5 min, 15 min, 0.5 h, 1 h, 2 h, 4 h, 6 h, and 8 h after administration. In the test, the concentration of each test compound in the plasma of the cynomolgus monkey was detected by the LC-MS/MS method, and the lower limits of quantification of the analysis methods for the plasma samples were all 1 μg/mL. The plasma concentration data were analyzed by the non-compartmental analysis (NCA) of the analysis software for pharmacokinetic data, WinNonlin, pharmacokinetic parameters were calculated, and pharmacokinetic characteristics of the test compounds in cynomolgus monkeys after administration were investigated, with the results shown in the following table.
# [8] = strain FDA-CDC AR-BANK#0439, AMR gene aac(6′)-Il, aadA1b, BCR1, IMP-18, OXA-50
# [9] = strain FDA-CDC AR-BANK#0052, AMR gene OXA-58, OXA-100, sul2
# [10] = strain FDA-CDC AR-BANK#0070, AMR gene OXA-58, OXA-100, sul2
# [11] = strain FDA-CDC AR-BANK#0361, AMR gene TEM-1, SHV-12, KPC-2
# [12] = strain FDA-CDC AR-BANK#0362, AMR gene TEM-1, SHV-11, KPC-2
# [13] = strain FDA-CDC AR-BANK#0363, AMR gene TEM-1, SHV-12, KPC-2
# [14] = strain FDA-CDC AR-BANK#0438, AMR gene aph(3′)-Ia, dfrA12, KPC-3, OmpK35, oqxA, oqxB, SHV-11
# [15] = strain FDA-CDC AR-BANK#0453, AMR gene KPC-3, OmpK35, oqxA, oqxB, SHV-11, TEM-1B
# [16] = 10 mg/kg subcutaneous injection
# [17] = 100 mg/kg subcutaneous injection
# [18] = both sexes, cynomolgus, iv, 10 mg/kg
smiles,measurement,setting,value
C[C@H](CN(CCCNC(=O)c1ccc(O)c(O)c1Cl)C(=O)c1ccc(O)c(O)c1Cl)[N+]1(CC2=C(C(=O)[O-])N3C(=O)[C@@H](NC(=O)/C(=N\OC(C)(C)C(=O)O)c4csc(N)n4)[C@H]3SC2)CCCC1 [Compound 2],MIC,[1]; ATCC27853,0.0625 µg/mL
same,MIC,[2]; ATCC25922,0.125 µg/mL
same,MIC,[3]; [8],0.5 µg/mL
same,MIC,"[3]; strain FDA-CDC AR-BANK#0441, AMR gene KPC-2",8 µg/mL
same,MIC,"[3]; strain FDA-CDC AR-BANK#0444, AMR gene aac(6′)-Il, dfrB5, OXA-4, tet(G), VIM-2",4 µg/mL
same,MIC,"[3]; strain FDA-CDC AR-BANK#0457, AMR gene aadA6, VIM-2",0.25 µg/mL
same,MIC,"[4]; strain FDA-CDC AR-BANK#0036, AMR gene strB, OXA-65, OXA-24, strA, sul2",0.5 µg/mL
same,MIC,[4]; [9],0.125 µg/mL
same,MIC,"[4]; strain FDA-CDC AR-BANK#0063, AMR gene OXA-23, OXA-65, OXA-24, sul2",4 µg/mL
same,MIC,[4]; [10],0.25 µg/mL
same,MIC,"[4]; strain FDA-CDC AR-BANK#0101, AMR gene strB, OXA-65, OXA-24, strA, sul2",1 µg/mL
same,MIC,[5]; [11],1 µg/mL
same,MIC,[5]; [12],0.25 µg/mL
same,MIC,[5]; [13],0.5 µg/mL
same,MIC,[5]; [14],1 µg/mL
same,MIC,[5]; [15],1 µg/mL
CC(C)(O/N=C(\C(=O)N[C@@H]1C(=O)N2C(C(=O)[O-])=C(C[N+]3(CCCN(CCCNC(=O)c4ccc(O)c(O)c4Cl)C(=O)c4ccc(O)c(O)c4Cl)CCCC3)CS[C@H]12)c1csc(N)n1)C(=O)O [Compound 3],MIC,"[1]; ATCC27853, ID-CAMHB, control strain ATCC 27853, read-out: MIC",0.25 µg/mL
same,AUMC0-inf,[6]; [16],86.9 h · h · ug · mL^−1
same,AUMC0-t,[6]; [16],80.3 h · h · ug · mL^−1
same,Kel,[6]; [16],1.04 h⁻¹
same,MRTPO,[6]; [16],47.4 min
same,AUMC0-inf,[6]; [17],880.4 h · h · ug · mL^−1
same,AUMC0-t,[6]; [17],871.4 h · h · ug · mL^−1
same,Kel,[6]; [17],1.64 h⁻¹
same,MRTPO,[6]; [17],47.8 min
same,AUC(0-inf),[6]; [16],110 µg·h/mL
same,AUC(0-t),[6]; [16],109 µg·h/mL
same,Cmax,[6]; [16],114 µg/mL
same,Tmax,[6]; [16],15 min
same,half-life,[6]; [16],39.9 min
same,AUC(0-inf),[6]; [17],1100 µg·h/mL
same,AUC(0-t),[6]; [17],1100 µg·h/mL
same,Cmax,[6]; [17],936 µg/mL
same,Tmax,[6]; [17],30 min
same,half-life,[6]; [17],25.3 min
same,AUC(0-inf),[7]; [18],166 µg·h/mL
same,AUC(0-t),[7]; [18],149 µg·h/mL
same,clearance,[7]; [18],1 mL/min/kg
same,half-life,[7]; [18],154 min
same,Cmax,"[7]; both sexes, cynomolgus, iv, 10 mg/kg, read-out: Cmax",55.2 µg/mL
same,MRT,"[7]; both sexes, cynomolgus, iv, 10 mg/kg, read-out: MRT",150 min
same,Vd,"[7]; both sexes, cynomolgus, iv, 10 mg/kg, read-out: Vd",0.223 L/kg
same,Tmax,[7]; both sexes,4.8 min
same,AUC last,[7]; 10 mg/kg,140.08 µg·h/mL
same,AUCinf,[7]; 10 mg/kg,153.20 µg·h/mL
same,CL,[7]; 10 mg/kg,1.088 mL/min/kg
same,Cmax,[7]; 10 mg/kg,48.60 µg/mL
same,MRT,[7]; 10 mg/kg,149 min
same,Vd,[7]; 10 mg/kg,0.21311 L/kg
same,t1/2,[7]; 10 mg/kg,136 min
same,MIC,"[2]; ATCC25922, ID-CAMHB, control strain ATCC 25922, read-out: MIC",0.0625 µg/mL
same,MIC,[3]; [8],0.125 µg/mL
same,MIC,"[3]; strain FDA-CDC AR-BANK#0441, AMR gene KPC-2, read-out: MIC",2 µg/mL
same,MIC,"[3]; strain FDA-CDC AR-BANK#0444, AMR gene aac(6′)-Il, dfrB5, OXA-4, tet(G), VIM-2, read-out: MIC",2 µg/mL
same,MIC,"[3]; strain FDA-CDC AR-BANK#0457, AMR gene aadA6, VIM-2, read-out: MIC",0.25 µg/mL
same,MIC,"[4]; strain FDA-CDC AR-BANK#0036, AMR gene strB, OXA-65, OXA-24, strA, sul2, read-out: MIC",0.25 µg/mL
same,MIC,[4]; [9],0.125 µg/mL
same,MIC,"[4]; strain FDA-CDC AR-BANK#0063, AMR gene OXA-23, OXA-65, OXA-24, sul2, read-out: MIC",> 32 µg/mL
same,MIC,[4]; [10],0.125 µg/mL
same,MIC,"[4]; strain FDA-CDC AR-BANK#0101, AMR gene strB, OXA-65, OXA-24, strA, sul2, read-out: MIC",0.5 µg/mL
same,MIC,[5]; [11],0.5 µg/mL
same,MIC,[5]; [12],0.125 µg/mL
same,MIC,[5]; [13],0.125 µg/mL
same,MIC,[5]; [14],0.25 µg/mL
same,MIC,[5]; [15],0.5 µg/mL
